The values below come from patent US20240075050A1, “Methods and Compositions for Treating Leucine Rich Repeat Kinase 2 (LRRK2)-Associated Disorder or Condition” (University of Connecticut, priority 2022, published 2024).

The test has as its system LRRK2. Briefly: LRRK2 levels in human fibroblasts, Western blot. In kind it is cell-based. As to conditions: 1 mM, 48 hours. The method, then:
FIGS. 2A-2T depicts that AICAr, the precursor of ATIC substrate, regulates LRRK2 expression levels and neuronal toxicity. FIGS. 2A and 2B depict the overexpressed LRRK2 levels in HEK 293T cells upon AICAr treatment. HEK293 cells were transfected with MYC-LRRK2 and treated with or without 1 mM AICAr for 48 hours. LRRK2 levels were analyzed by Western blot. FIGS. 2C and 2D depict the LRRK2 expression levels in SH-SY5Y cells upon AICAr treatment. Human neuroblastoma SH-SY5Y cells were treated with or without 1 mM AICAr for 48 hours. LRRK2 expression levels were analyzed by Western blot. FIGS. 2E and 2F depict the overexpressed (3-glucocerebrosidase (GCase) levels upon AICAr treatment. HEK 293T cells were transfected with V5-GCase and treated with or without 1 mM AICAr for 48 hours. GCase levels were analyzed by Western blot. FIGS. 2G-2N depict the LRRK2 expression levels in primary neurons (FIG. 2G and FIG. 2H), microglia (FIG. 2I and FIG. 2J), astrocytes (FIG. 2K and FIG. 2L) and human fibroblasts (FIG. 2M and FIG. 2N) upon AICAr treatment. Mouse primary cortical neurons, microglia, astrocytes or human fibroblasts from a health control were treated with or without 1 mM AICAr for 48 hours. LRRK2 expression levels were analyzed by Western blot. […] LRRK2 expression levels were analyzed by Western blot. […] Images were quantified by ImageJ software. […]
In general terms: Immunoblotting shows a protein as a band on a membrane.

The structures appear in SMILES notation.

In the case of `NC(=O)c1ncn([C@@H]2O[C@H](CO)[C@@H](O)[C@H]2O)c1N` [AICAr, 5-aminoimidazole-4-carboxamide riboside], the “LRRK2 levels in fibroblasts” value is reported as “significantly decrease”.
